Data on 15 molecules can be found in EP2033962A1, “Tetracyclic indolopyridines as EG5 inhibitors” (4SC AG, priority 2007, dated 2009).

Each structure is given as a SMILES string. Some results are limits rather than exact numbers.

For the assay, the system named is RKO p27 uninduced (proliferating). As to the kind of experiment: Alamar Blue cell viability assay, anti-proliferative / cytotoxic activity on proliferating cells. The assay is classed as cell-based. Particulars: Homo sapiens, RKOp27; RKO colon cancer cells, absence of the inducer Ponasterone A, 72 hours incubation; read-out: -log EC50 [mol/l] RKO p27 uninduced (proliferating) (converted). On the procedure: The anti-proliferative / cytotoxic activity of the compounds described herein can be tested on subclones of RKO human colon adenocarcinoma cells (Schmidt et al., Oncogene 19, 2423-2429; 2000) using the Alamar Blue cell viability assay (described in O'Brien et al. Eur J Biochem 267, 5421-5426, 2000). The compounds are dissolved as 10 mM solutions in DMSO and subsequently diluted in semi-logarithmic steps. DMSO dilutions are further diluted 1:100 v:v into Dulbecco's modified Eagle's medium (DMEM) containing 10% fetal calf serum to a final concentration twice as much as the final concentration in the test. RKO subclones are seeded into 96 well flat bottom plates at a density of 4000 cells per well in a volume of 50 µl per well. 24 hours after seeding the 50 µl each of the compound dilutions in DMEM medium are added into each well of the 96 well plate. Each compound dilution is tested as triplicates. Wells containing untreated control cells are filled with 50 µl DMEM medium containing 1% DMSO. The cells are then incubated with the substances for 72 hours at 37°C in a humidified atmosphere containing 5% carbon dioxide. To determine the viability of the cells, 10 µl of an Alamar Blue solution (Biosource) are added and the fluorescence is measured at an extinction of 544 nm and an emission of 590 nm. For the calculation of the cell viability the emission value from untreated cells is set as 100% viability and the emission rates of treated cells are set in relation to the values of untreated cells. Viabilities are expressed as % values. The Graphpad Prism program is used for the calculation of EC50 values for anti-proliferative / cytotoxic activity out of the obtained dose-response curves.
To determine the cell cycle specific mode of action, subclones of RKO colon adenocarcinoma cells (RKOp21 or RKOp27 as described by Schmidt et al. in Oncogene 19, 2423-2429; 2000) are seeded into 96 well flat bottom plates at a density of 16000 cells per well in a volume of 50 µl per well in DMEM growth medium with 10% FCS containing 10 µM Ponasterone A. 24 hours after seeding the 50 µl each of the compound dilutions in DMEM medium are added into each well of the 96-well plate. Each compound dilution is tested as triplicates. Wells containing untreated control cells are filled with 50 µl DMEM medium containing 1% DMSO. The cells are then incubated with the substances for 72 hours at 37°C in a humidified atmosphere containing 5% carbon dioxide. To determine the viability of the cells, 10 µl of an Alamar Blue solution (Biosource) are added and the fluorescence is measured at an extinction of 544 nm and an emission of 590 nm. For the calculation of the cell viability the emission value from untreated cells is set as 100% viability and the emission rates of treated cells are set in relation to the values of untreated cells. Viabilities are expressed as % values. The Graphpad Prism program (GraphPad Software, Inc) is used for the calculation of EC50 values out of the obtained dose-response curves. Viability is compared of proliferating cells grown in the absence of the inducer Ponasterone A, versus viability of cells arrested by the expression of ectopic p27Kip1 induced by Ponasterone A.
(Resazurin is reduced to fluorescent resorufin, in cell work by metabolically active cells.)
Take `COc1ccc2[nH]c3c(c2c1)C[C@@]1(C)C(=O)N(CCN(C(C)C)C(C)C)CC(=O)N1[C@@H]3c1cccc(O)c1` (racemic) [Example 19, (6RS,12aSR)-2-(2-Diisopropylamino-ethyl)-6-(3-hydroxy-phenyl)-10-methoxy-12a-methyl-2,3,6,7,12,12a-hexahydro-pyrazino[1',2':1,6]pyrido[3,4-b]indole-1,4-dione]: the EC50 is at most 100 nM. Regarding `COc1ccc2[nH]c3c(c2c1)C[C@@]1(C)C(=O)N(CCN2CCOCC2)CC(=O)N1[C@@H]3c1cccc(O)c1` (racemic) [Example 13, (6RS,12aSR)-6-(3-Hydroxy-phenyl)-10-methoxy-12a-methyl-2-(2-morpholin-4-yl-ethyl)-2,3,6,7,12,12a-hexahydro-pyrazino[1',2':1,6]pyrido[3,4-b]indole-1,4-dione], the EC50 is 100 to 1000 nM. Consider `COc1ccc2[nH]c3c(c2c1)C[C@@]1(C)C(=O)N(CCCN2CCCCC2)CC(=O)N1[C@@H]3c1cccc(O)c1` (racemic) [Example 27, (6RS,12aSR)-6-(3-Hydroxy-phenyl)-10-methoxy-12a-methyl-2-(3-piperidin-1-yl-n-propyl)-2,3,6,7,12,12a-hexahydro-pyrazino[1',2':1,6]pyrido[3,4-b]indole-1,4-dione], for which the EC50 was 100 to 1000 nM. Then `COc1ccc2[nH]c3c(c2c1)C[C@@]1(C)C(=O)N(CCCN2CCCC2)CC(=O)N1[C@@H]3c1cccc(O)c1` (racemic) [Example 28, (6RS,12aSR)-6-(3-Hydroxy-phenyl)-10-methoxy-12a-methyl-2-(3-pyrrolidin-1-yl-n-propyl)-2,3,6,7,12,12a-hexahydro-pyrazino[1',2':1,6]pyrido[3,4-b]indole-1,4-dione], with 100 to 1000 nM; and `COc1ccc2[nH]c3c(c2c1)C[C@@]1(C)C(=O)N(CCN2CCCCC2)CC(=O)N1[C@@H]3c1cccc(O)c1` (racemic) [Example 11, (6RS,12aSR)-6-(3-Hydroxy-phenyl)-10-methoxy-12a-methyl-2-(2-piperidin-1-yl-ethyl)-2,3,6,7,12,12a-hexahydro-pyrazino[1',2':1,6]pyrido[3,4-b]indole-1,4-dione], with at most 100 nM. Consider `COc1ccc2[nH]c3c(c2c1)C[C@@]1(C)C(=O)N(CCNC(C)C)CC(=O)N1[C@@H]3c1cccc(O)c1` (racemic) [Example 25, (6RS,12aSR)-6-(3-Hydroxy-phenyl)-2-(2-isopropylamino-ethyl)-10-methoxy-12a-methyl-2,3,6,7,12,12a-hexahydro-pyrazino[1',2':1,6]pyrido[3,4-b]indole-1,4-dione], for which the EC50 was at most 100 nM. `COc1ccc2[nH]c3c(c2c1)C[C@@]1(C)C(=O)N(C)CC(=O)N1[C@@H]3c1cccc(O)c1` (racemic) [Example 10, (6RS,12aSR)-6-(3-Hydroxy-phenyl)-10-methoxy-2,12a-dimethyl-2,3,6,7,12,12a-hexahydro-pyrazino[1',2':1,6]pyrido[3,4-b]indole-1,4-dione]: the EC50 was 100 to 1000 nM.

As to `O=C1[C@@H]2Cc3c([nH]c4ccccc34)[C@@H](c3cccc(O)c3)N2C(=O)CN1CCN1CCCC1` (racemic) [Example 6, (6RS,12aSR)-6-(3-Hydroxy-phenyl)-2-(2-pyrrolidin-1-yl-ethyl)-2,3,6,7,12,12a-hexahydro-pyrazino[1',2':1,6]pyrido[3,4-b]indole-1,4-dione], the EC50 is 100 to 1000 nM. For the molecule `COc1ccc2[nH]c3c(c2c1)C[C@@]1(C)C(=O)N(CCN2CCCC2)CC(=O)N1[C@@H]3c1cccc(O)c1` (racemic) [Example 9, (6RS,12aSR)-6-(3-Hydroxy-phenyl)-10-methoxy-12a-methyl-2-(2-pyrrolidin-1-yl-ethyl)-2,3,6,7,12,12a-hexahydro-pyrazino[1',2':1,6]pyrido[3,4-b]indole-1,4-dione], the EC50 is at most 100 nM.

Turning to `O=C1[C@@H]2Cc3c([nH]c4ccccc34)[C@@H](c3cccc(O)c3)N2C(=O)CN1CCN1CCCCC1` (racemic) [Example 7, (6RS,12aSR)-6-(3-Hydroxy-phenyl)-2-(2-piperidin-1-yl-ethyl)-2,3,6,7,12,12a-hexahydro-pyrazino[1',2':1,6]pyrido[3,4-b]indole-1,4-dione], the EC50 was 100 to 1000 nM. With `CCN(CC)CCN1CC(=O)N2[C@H](c3cccc(O)c3)c3[nH]c4ccc(OC)cc4c3C[C@@]2(C)C1=O` (racemic) [Example 15, (6RS,12aSR)-2-(2-Diethylamino-ethyl)-6-(3-hydroxy-phenyl)-10-methoxy-12a-methyl-2,3,6,7,12,12a-hexahydro-pyrazino[1',2':1,6]pyrido[3,4-b]indole-1,4-dione], the EC50 was 100 to 1000 nM. `COc1ccc2[nH]c3c(c2c1)C[C@@]1(C)C(=O)N(CCCN2CCOCC2)CC(=O)N1[C@@H]3c1cccc(O)c1` (racemic) [Example 14, (6RS,12aSR)-6-(3-Hydroxy-phenyl)-10-methoxy-12a-methyl-2-(3-morpholin-4-yl-n-propyl)-2,3,6,7,12,12a-hexahydro-pyrazino[1',2':1,6]pyrido[3,4-b]indole-1,4-dione]: the EC50 is 100 to 1000 nM.

Turning to `COc1ccc2[nH]c3c(c2c1)C[C@@]1(C)C(=O)N(CCN(C)C)CC(=O)N1[C@@H]3c1cccc(O)c1` (racemic) [Example 8, (6RS,12aSR)-2-(2-Dimethylamino-ethyl)-6-(3-hydroxy-phenyl)-10-methoxy-12a-methyl-2,3,6,7,12,12a-hexahydro-pyrazino[1',2':1,6]pyrido[3,4-b]indole-1,4-dione], the EC50 was at most 100 nM.

On to `CCN(CC)CCCN1CC(=O)N2[C@H](c3cccc(O)c3)c3[nH]c4ccc(OC)cc4c3C[C@@]2(C)C1=O` (racemic) [Example 16, (6RS,12aSR)-2-(3-Diethylamino-n-propyl)-6-(3-hydroxy-phenyl)-10-methoxy-12a-methyl-2,3,6,7,12,12a-hexahydro-pyrazino[1',2':1,6]pyrido[3,4-b]indole-1,4-dione], for which the EC50 is at most 100 nM. With `COc1ccc2[nH]c3c(c2c1)C[C@@]1(C)C(=O)N(CCCN(C)C)CC(=O)N1[C@@H]3c1cccc(O)c1` (racemic) [Example 12, (6RS,12aSR)-2-(3-Dimethylamino-n-propyl)-6-(3-hydroxy-phenyl)-10-methoxy-12a-methyl-2,3,6,7,12,12a-hexahydro-pyrazino[1',2':1,6]pyrido[3,4-b]indole-1,4-dione], the EC50 was at most 100 nM.
